Measurements as given in patent US4727080A, “1-substituted derivatives of 6-fluoro-7-(pyrrol-1-yl)-1,4-dihydro-4-oxoquinoline-3-carboxylic acid, their preparation and their application as drugs” (Provesan S.A., priority 1984, dated 1988).
In brackets after ≈: the same amount, converted by molar mass. Where two headings read alike, the source gives them in different places.

Tests used:
[1] = system: Bacillus subtilis ATCC 6633; assay: "In vitro" MIC, Bacillus subtilis; assay type: cell-based; conditions: read-out: "In vitro" MIC
Method: (§1) Antimicrobial pharmacological activity (G. L. Daquet and Y. A. Chabbect, Techniques en bacteriologie (Techniques in bacteriology), vol. 3, Flammarion Medecine-Sciences, Paris, 1972, and W. B. Hugo and A. D. Rusell, Pharmaceutical Microbiology, Blackwell Scientific Publications, London (1977).
Bacillus subtilis ATCC 6633
(§2) A streak culture of each of the microorganisms is formed in tubes of antibiotics agar no. 1 and incubated for 20 hours at 37° C. A culture loop is then taken and a culture is formed in a tryptone-soya broth and incubated for 20 hours at 37° C. The resulting culture is diluted to 1/4 with Ringer's physiological solution to give a standardized suspension of 10^5 ufc/ml for each organism.
(§3) Starting from a solution of 1000 μg/ml in 0.1N NaOH, each product is diluted successively in dextrose agar (melted beforehand and kept at 50° C.) to give the following concentrations: 64-32-16-8-4-2-1-0.5-0.25-0.125 μg of derivative/ml of medium.
(§4) After this, each concentration of each product is divided up into Petri dishes of 10 cm diameter at a rate of 10 ml of medium per dish and using as many dishes as there are microorganisms to be tested.
(§5) Once the medium has cooled, the dishes are treated with the inoculations at a rate of 0.4 ml of inoculation per dish. They are spread out with a Drigalski loop and the supernatant is collected. The inoculated dishes are incubated at 37° C. for 20 hours.

[2] = system: Micrococcus flavus ATCC 10240; assay: "In vitro" MIC, Micrococcus flavus; assay type: cell-based; conditions: read-out: "In vitro" MIC
Method: as §1
Micrococcus flavus ATTC 10240
as §2, §3, §4, §5

Sarcina lutea ATCC 9341 = assay: "In vitro" MIC, Sarcina lutea; assay type: cell-based; conditions: Micrococcus luteus, read-out: "In vitro" MIC
Method: as §1, §2, §3, §4, §5

[3] = system: Staphylococcus aureus ATCC 5488/23; assay: "In vitro" MIC, Staphylococcus aureus ATCC 5488/23; assay type: cell-based; conditions: read-out: "In vitro" MIC
Method: as §1
Staphylococcus aureus ATCC 5488/23
as §2, §3, §4, §5

[4] = system: Staphylococcus aureus ATCC 25178; assay: "In vitro" MIC, Staphylococcus aureus ATCC 25178; assay type: cell-based; conditions: read-out: "In vitro" MIC
Method: as §1
Staphylococcus aureus ATCC 25178
as §2, §3, §4, §5

[5] = system: Streptococcus faecalis ATCC 10541; assay: "In vitro" MIC, Streptococcus faecalis; assay type: cell-based; conditions: Enterococcus faecalis, read-out: "In vitro" MIC
Method: as §1
Streptococcus faecalis ATCC 10541
as §2, §3, §4, §5

[6] = system: Enterobacter aerogenes ATCC 15038; assay: "In vitro" MIC, Enterobacter aerogenes; assay type: cell-based; conditions: Klebsiella aerogenes, read-out: "In vitro" MIC
Method: as §1
Enterobacter aerogenes ATCC 15038
as §2, §3, §4, §5

[7] = system: Enterobacter cloacae CHSP-20; assay: "In vitro" MIC, Enterobacter cloacae; assay type: cell-based; conditions: read-out: "In vitro" MIC
Method: as §1
Enterobacter cloacae CHSP-20
as §2, §3, §4, §5

[8] = system: Escherichia coli ATCC 10536; assay: "In vitro" MIC, Escherichia coli ATCC 10536; assay type: cell-based; conditions: read-out: "In vitro" MIC
Method: as §1
Escherichia coli ATCC 10536
as §2, §3, §4, §5

Escherichia coli R-1513 = assay: "In vitro" MIC, Escherichia coli R-1513; assay type: cell-based; conditions: read-out: "In vitro" MIC
Method: as §1, §2, §3, §4, §5

[9] = system: Klebsiella pneumoniae ATCC 10031; assay: "In vitro" MIC, Klebsiella pneumoniae; assay type: cell-based; conditions: read-out: "In vitro" MIC
Method: as §1
Klebsiella pneumoniae ATCC 10031
as §2, §3, §4, §5

[10] = system: Citrobacter freundii ATCC 11606; assay: "In vitro" MIC, Citrobacter freundii; assay type: cell-based; conditions: read-out: "In vitro" MIC
Method: as §1
Citrobacter freundii ATCC 11606
as §2, §3, §4, §5

[11] = system: Proteus mirabilis ATCC 4675; assay: "In vitro" MIC, Proteus mirabilis; assay type: cell-based; conditions: read-out: "In vitro" MIC
Method: as §1
Proteus mirabilis ATCC 4675
as §2, §3, §4, §5

Proteus morganii CHSP-16 = assay: "In vitro" MIC, Proteus morganii; assay type: cell-based; conditions: Morganella morganii, read-out: "In vitro" MIC
Method: as §1, §2, §3, §4, §5

[12] = system: Pseudomonas aeruginosa 25115; assay: "In vitro" MIC, Pseudomonas aeruginosa 25115; assay type: cell-based; conditions: read-out: "In vitro" MIC
Method: as §1
Pseudomonas aeruginosa 25115
as §2, §3, §4, §5

[13] = system: Pseudomonas aeruginosa ADSA 47; assay: "In vitro" MIC, Pseudomonas aeruginosa ADSA 47; assay type: cell-based; conditions: read-out: "In vitro" MIC
Method: as §1
Pseudomonas aeruginosa ADSA 47
as §2, §3, §4, §5

[14] = system: Salmonella typhimurium AMES 98; assay: "In vitro" MIC, Salmonella typhimurium AMES 98; assay type: cell-based; conditions: Salmonella enterica, read-out: "In vitro" MIC
Method: as §1
Salmonella typhimurium AMES 98
as §2, §3, §4, §5

[15] = system: Salmonella typhimurium AMES 100; assay: "In vitro" MIC, Salmonella typhimurium AMES 100; assay type: cell-based; conditions: Salmonella enterica, read-out: "In vitro" MIC
Method: as §1
Salmonella typhimurium AMES 100
as §2, §3, §4, §5

[16] = system: Serratia marcescens ATTC 13880; assay: "In vitro" MIC, Serratia marcescens; assay type: cell-based; conditions: read-out: "In vitro" MIC
Method: as §1
Serratia marcescens ATTC 13880
as §2, §3, §4, §5

Shigella flexnerii = assay: "In vitro" MIC, Shigella flexnerii; assay type: cell-based; conditions: 20 h, read-out: "In vitro" MIC
Method: as §1, §2, §3, §4, §5

Acute toxicity to mice = conditions: mouse, in vivo, ip, suspension in 5% gum arabic, mortality over 7 days
Method: The experimental animals used to determine this toxicity were albino mice of the C.F.L.P. strain and of both sexes, weighing between 19 and 25 grams. After an 18-hour fasting period with water "ad libitum", the derivatives forming the subject of the present invention are administered intraperitoneally as a suspension in 5% gum arabic. The volume of suspension administered was 0.4 ml/20 grams (20 ml/kg) in all cases, the concentration of the suspension being changed according to the dose administered.
One hour after administration of the derivatives, the animals are given a standard Panlab rat-mouse food. The mortality was observed over a period of 7 days. Differences in mortality between the sexes were not observed with any of the products.

[17] = system: Enterobacteriaceae (Pseudomonas aeruginosa); assay: "In vitro" antimicrobial activity compared with nalidixic acid, Enterobacteriaceae (Pseudomonas aeruginosa); assay type: cell-based
Method: as §1, §2, §3, §4, §5

Gram-positive cocci = assay: "In vitro" antimicrobial activity compared with nalidixic acid, Gram-positive cocci; assay type: cell-based
Method: as §1, §2, §3, §4, §5

Compound: CNn1cc(C(=O)O)c(=O)c2cc(F)c(-n3cccc3)cc21 [Example 7, 6-fluoro-7-(pyrrol-1-yl)-1-methylamino-4-oxo-1,4-dihydroquinoline-3-carboxylic acid]
- MIC ([1]; ATCC6633, Bacillus subtilis ATCC 6633, dextrose agar, 37° C., 20 hours): ≤ 0.062 mg/L
- MIC ([2]; ATCC10240, Micrococcus flavus ATCC 10240, dextrose agar, 37° C., 20 hours): 4 mg/L (≈ 13.3 µM)
- MIC (Sarcina lutea ATCC 9341; ATCC9341, Sarcina lutea ATCC 9341, dextrose agar, 37° C., 20 hours): 4 mg/L (≈ 13.3 µM)
- MIC ([3]; ATCC5488, Staphylococcus aureus ATCC 5488/23, dextrose agar, 37° C., 20 hours): 0.25 mg/L (≈ 0.83 µM)
- MIC ([4]; ATCC25178, Staphylococcus aureus ATCC 25178, dextrose agar, 37° C., 20 hours): 0.25 mg/L (≈ 0.83 µM)
- MIC ([5]; ATCC10541, Streptococcus faecalis ATCC 10541, dextrose agar, 37° C., 20 hours): 4 mg/L (≈ 13.3 µM)
- MIC ([6]; ATCC15038, Enterobacter aerogenes ATCC 15038, dextrose agar, 37° C., 20 hours): 1 mg/L (≈ 3.32 µM)
- MIC ([7]; CHSP20, Enterobacter cloacae CHSP-20, dextrose agar, 37° C., 20 hours): 1 mg/L (≈ 3.32 µM)
- MIC ([8]; ATCC10536, Escherichia coli ATCC 10536, dextrose agar, 37° C., 20 hours): ≤ 0.062 mg/L
- MIC (Escherichia coli R-1513; R1513, Escherichia coli R-1513, dextrose agar, 37° C., 20 hours): 0.5 mg/L (≈ 1.66 µM)
- MIC ([9]; ATCC10031, Klebsiella pneumoniae ATCC 10031, dextrose agar, 37° C., 20 hours): 0.125 mg/L (≈ 0.415 µM)
- MIC ([10]; ATCC11606, Citrobacter freundii ATCC 11606, dextrose agar, 37° C., 20 hours): 1 mg/L (≈ 3.32 µM)
- MIC ([11]; ATCC4675, Proteus mirabilis ATCC 4675, dextrose agar, 37° C., 20 hours): 2 mg/L (≈ 6.64 µM)
- MIC (Proteus morganii CHSP-16; CHSP16, Proteus morganii CHSP-16, dextrose agar, 37° C., 20 hours): 1 mg/L (≈ 3.32 µM)
- MIC ([12]; Pseudomonas aeruginosa 25115, dextrose agar, 37° C., 20 hours): 8 mg/L (≈ 26.6 µM)
- MIC ([13]; ADSA47, Pseudomonas aeruginosa ADSA 47, dextrose agar, 37° C., 20 hours): 16 mg/L (≈ 53.1 µM)
- MIC ([14]; Salmonella typhimurium AMES 98, dextrose agar, 37° C., 20 hours): 0.125 mg/L (≈ 0.415 µM)
- MIC ([15]; Salmonella typhimurium AMES 100, dextrose agar, 37° C., 20 hours): 0.25 mg/L (≈ 0.83 µM)
- MIC ([16]; ATTC13880, Serratia marcescens ATTC 13880, dextrose agar, 37° C., 20 hours): 1 mg/L (≈ 3.32 µM)
- MIC (Shigella flexnerii): 1 mg/L (≈ 3.32 µM)
- LD50 at 168 h (Acute toxicity to mice): > 1600 mg/kg
- "in vitro" activity compared with nalidixic acid [17]: greater "in vitro" activity than nalidixic acid
- "in vitro" activity compared with nalidixic acid (Gram-positive cocci): greater "in vitro" activity than nalidixic acid

Compound: CCn1cc(C(=O)O)c(=O)c2ccc(C)nc21 [Nalidixic acid, reference compound]
- MIC ([1]; Bacillus subtilis, ATCC6633, 20 h): 1 mg/L (≈ 4.31 µM)
- MIC ([2]; Micrococcus flavus, ATCC10240, 20 h): 128 mg/L (≈ 551 µM)
- MIC (Sarcina lutea ATCC 9341; ATCC9341, 20 h): 128 mg/L (≈ 551 µM)
- MIC ([3]; Staphylococcus aureus, ATCC5488, 20 h): 32 mg/L (≈ 138 µM)
- MIC ([4]; Staphylococcus aureus, ATCC25178, 20 h): ≥ 64 mg/L
- MIC ([5]; ATCC10541, 20 h): ≥ 64 mg/L
- MIC ([6]; ATCC15038, 20 h): 4 mg/L (≈ 17.2 µM)
- MIC ([7]; Enterobacter cloacae, CHSP20, 20 h): 4 mg/L (≈ 17.2 µM)
- MIC ([8]; Escherichia coli, ATCC10536, 20 h): 0.25 mg/L (≈ 1.08 µM)
- MIC (Escherichia coli R-1513; Escherichia coli, R1513, 20 h): 4 mg/L (≈ 17.2 µM)
- MIC ([9]; Klebsiella pneumoniae, ATCC10031, 20 h): 1 mg/L (≈ 4.31 µM)
- MIC ([10]; Citrobacter freundii, ATCC11606, 20 h): 4 mg/L (≈ 17.2 µM)
- MIC ([11]; Proteus mirabilis, ATCC4675, 20 h): 8 mg/L (≈ 34.4 µM)
- MIC (Proteus morganii CHSP-16; CHSP16, 20 h): 1 mg/L (≈ 4.31 µM)
- MIC ([12]; Pseudomonas aeruginosa, 25115, 20 h): ≥ 128 mg/L
- MIC ([13]; Pseudomonas aeruginosa, ADSA47, 20 h): ≥ 128 mg/L
- MIC ([14]; TYPHIMURIUM, 20 h): 0.5 mg/L (≈ 2.15 µM)
- MIC ([15]; TYPHIMURIUM, 20 h): 0.5 mg/L (≈ 2.15 µM)
- MIC ([16]; Serratia marcescens, ATTC13880, 20 h): 1 mg/L (≈ 4.31 µM)
- MIC (Shigella flexnerii): 2 mg/L (≈ 8.61 µM)
